Assay results published in patent publication US20250230151A1, “COMPOUNDS FOR CANCERS DRIVEN BY BRAF MUTATION” (THE BOARD OF TRUSTEES OF THE UNIVERSITY OF ILLINOIS, priority 2021, published 2025).
Read-outs that look alike come from different tables or passages of the source. One block for each molecule: values may come before it.

Key:
P-gp [1] = target: T1, P-gp (Homo sapiens, UniProt P08183); conditions: background statement on dabrafenib; cited from earlier work
T1 construct: host or cells: MDCK (MDR1-MDCK)

HCT116 cells = assay: 72-hour cell viability assay (Alamar Blue), HCT116; format: cell-based
Protocol: (§1) Cell Culture and reagents. All cell lines were grown in a 37° C., 5% CO2, humidified environment, in media containing 1% penicillin/streptomycin. Cell culture conditions are as follows: MDCK cells transfected with MDR1 (or ABCB1) were obtained from the Netherlands Cancer Institute (Amsterdam, The Netherlands) and maintained in DMEM with 10% fetal bovine serum (FBS, Gemini). Traditional cell lines A375, CHL-1, B16F10, and U118MG were grown in DMEM with 10% FBS, SK-MEL-28, U87 and T98G in EMEM with 10% FBS, AM-38 in EMEM with 20% HI-FBS (Gibco), HT29 in McCoy's 5A with 10% FBS, HCT116 in RPMI with 10% FBS. Compounds were dissolved in DMSO (1% final concentration, Sigma-Aldrich) for cell culture studies.
(§2) Cell viability assays. Cells were harvested, seeded in a 96-well plate and allowed to adhere overnight. Compound was added to each well in DMSO (1% final concentration). Cells were incubated for 72 hours before viability was assessed by the Alamar Blue Assay. Raptinal ([…]) was used as a dead control.

P-gp [2] = target: T2, P-gp (Mus musculus, UniProt P21447); assay: P-gp in vivo assay (elacridar pretreatment); conditions: for enhancement of BBB penetrance by P-gp inhibition: elacridar 2.5 mg/kg, compound 25 mg/kg IV
T2 construct: tissue Charles River (CD-1 mice); host or cells: living CD-1 mice; blood-brain barrier / brain
Protocol: Actionability in animals. […] At each time point, blood and brain were harvested, and compound concentrations in each compartment were quantified.
In this experiment, brain-to-blood ratios of P-gp substrates […] with the P-gp inhibitor compared to vehicle, while those of non-substrates will remain the same.
Blood-brain barrier penetrance P-gp in vivo assays. […] CD-1 mice were purchased from Charles River and acclimated for 4-7 days before use. Mice were administered elacridar or its vehicle at 2.5 mg/kg via lateral tail vein injection. Thirty-minutes post injection, mice were then treated with compounds at 25 mg/kg intravenously now in the other tail vein. At each time point, mice were sacrificed and blood was collected by lacerating the right auricle with iris scissors. An 18-gauge angiocatheter was inserted through the left ventricle, and all residual circulatory volume was removed by perfusing 0.9% saline solution via an analog peristaltic pump. Brains were harvested from the cranial vault and flash frozen. Blood samples were centrifuged at 13,000 ref for 10 minutes and the supernatant serum was stored at −80° C. until analysis. Brain samples were homogenized in ice-cold methanol and centrifuged first at 2000 ref for three minutes and then 13,000 ref for ten minutes and supernatant and tissue debris were separated and stored at −80° C. The resultant supernatant and serum were analyzed by LC-MS/MS to determine compound concentrations. […] All compounds were administered at 5 mL/kg.

[3] = tested on: melanoma brain metastatic lesions; conditions: combined with trametinib, clinical trials; cited from earlier work
[4] = tested on: A375 melanoma cells intracranially implanted; assay: A375 intracranial mouse model of melanoma metastasis; format: in vivo; conditions: 50 mg/kg IP once a day, two 5-day cycles, 10 doses
Protocol: Number of mice per cohort n>3. […] (C) Evaluation of everafenib in an intracranial mouse model. 50,000 A375 melanoma cells were intracranially implanted into 7-week old female athymic nude mice. Five days after inoculation, mice were treated with the vehicle or 50 mg/kg of dabrafenib or everafenib intraperitoneal (IP) once a day for 5 days. After 2 days off, another five daily doses were administered, a total of 10 treatments in the model. Cells were tested to be free of pathogens prior to inoculation. […] Number of mice per cohort=6. Statistical significance was determined by a two-tailed log-rank (Mantel-Cox) test. **P<0.01 ***P<0.001 ****P<0.0001.
Such a model has been developed using intracranial implantation of the A375 melanoma cell line, and thus, this macro-metastatic model via injection of A375 cells to the mouse forebrain was used to assess everafenib and dabrafenib head-to-head. In the experiment, mice were intracranially implanted with A375 cells and then 5 days later were treated with 50 mg/kg of dabrafenib or everafenib (two cycles of once-per-day for 5 days via IP injection, a total of 10 doses).
In vivo efficacy model. […] Human melanoma A375 cells were intracranially implanted in 7-week-old female athymic nude mice (50,000 cells/mouse). Cells were tested to be free of pathogens prior to inoculation. […]

B16F10 cells = assay: 72-hour cell viability assay (Alamar Blue), B16F10; format: cell-based
Protocol: as §1, §2

[5] = tested on: MAPK signaling (phospho-MEK1/2, phospho-ERK1/2) in AM-38 cells; assay: Immunoblotting of MEK1/2 and ERK1/2 phosphorylation, AM-38; format: cell-based; conditions: AM-38, 1 h of treatment
Protocol: Immunoblotting. Cells were lysed using RIPA buffer containing phosphatase (BioVision) and protease inhibitor cocktail (Calbiochem). Protein concentration was determined using the BCA assay (Pierce). Cell lysates containing […] of protein were loaded into each lane of 4% to 20% gradient gels (Bio-Rad) for SDS-PAGE. Proteins were transferred onto PDVF membrane for Western blot analysis. Blots were blocked with BSA for one hour followed by incubation with primary antibody overnight (dilution according to manufacturer's protocols), and then secondary antibody was incubated for one hour. Blots were then imaged with a ChemiDoc Touch (Bio-Rad) after incubation with SuperSignal West Pico Solution (ThermoFischer) following manufacturer's protocols. All antibodies were purchased from Cell Signaling Technology: p-ERK (9101S), ERK (4695S), p-MEK (9121S), MEK (8727S), vinculin (13901S) Rabbit IgG-HRP (7074), […] (5125).

[6] = Blood-brain barrier penetrance, brain and serum levels after single IV injection; format: in vivo; conditions: CD-1, mouse, 60 min after single 25 mg/kg IV injection, read-out: brain-to-serum ratio
Protocol: Blood-brain barrier penetrance P-gp in vivo assays. All experimental procedures were reviewed and approved by the University of Illinois Institutional Animal Care and Use Committee (Protocol number: 19191). CD-1 mice were purchased from Charles River and acclimated for 4-7 days before use. Mice were administered elacridar or its vehicle at 2.5 mg/kg via lateral tail vein injection. Thirty-minutes post injection, mice were then treated with compounds at 25 mg/kg intravenously now in the other tail vein. At each time point, mice were sacrificed and blood was collected by lacerating the right auricle with iris scissors. An 18-gauge angiocatheter was inserted through the left ventricle, and all residual circulatory volume was removed by perfusing 0.9% saline solution via an analog peristaltic pump. Brains were harvested from the cranial vault and flash frozen. Blood samples were centrifuged at 13,000 ref for 10 minutes and the supernatant serum was stored at −80° C. until analysis. Brain samples were homogenized in ice-cold methanol and centrifuged first at 2000 ref for three minutes and then 13,000 ref for ten minutes and supernatant and tissue debris were separated and stored at −80° C. The resultant supernatant and serum were analyzed by LC-MS/MS to determine compound concentrations. […] All compounds were administered at 5 mL/kg.

cell lines with WTBRAF = assay: Cell viability, cell lines with WT BRAF; format: cell-based
Protocol: as §1, §2

[7] = Pharmacokinetics in CD-1 mice, serum by LC-MS/MS; format: in vivo, mouse
[8] = Homo sapiens, HCT-116, WT BRAF, colon, read-out: HCT116 (WT) IC50
[9] = Homo sapiens, HCT-116, WT BRAF, read-out: HCT116 IC50
[10] = Mus musculus, B16-F10, WT BRAF, melanoma, read-out: B16F10 (WT) IC50
[11] = Mus musculus, B16-F10, WT BRAF, read-out: B16F10 IC50
[12] = 20 mg/kg IP, CD-1 mice, one-compartment model, listed as 261
[13] = 20 mg/kg IP, CD-1 mice, one-compartment model, listed as everafenib
[14] = CD-1, mouse, serum, intraperitoneal, 20 mg/kg IP, read-out: [Drug] serum concentration
[15] = CD-1, mouse, serum, 25 mg/kg IV, read-out: [Drug] serum concentration

T2 sequence (P21447 whole entry): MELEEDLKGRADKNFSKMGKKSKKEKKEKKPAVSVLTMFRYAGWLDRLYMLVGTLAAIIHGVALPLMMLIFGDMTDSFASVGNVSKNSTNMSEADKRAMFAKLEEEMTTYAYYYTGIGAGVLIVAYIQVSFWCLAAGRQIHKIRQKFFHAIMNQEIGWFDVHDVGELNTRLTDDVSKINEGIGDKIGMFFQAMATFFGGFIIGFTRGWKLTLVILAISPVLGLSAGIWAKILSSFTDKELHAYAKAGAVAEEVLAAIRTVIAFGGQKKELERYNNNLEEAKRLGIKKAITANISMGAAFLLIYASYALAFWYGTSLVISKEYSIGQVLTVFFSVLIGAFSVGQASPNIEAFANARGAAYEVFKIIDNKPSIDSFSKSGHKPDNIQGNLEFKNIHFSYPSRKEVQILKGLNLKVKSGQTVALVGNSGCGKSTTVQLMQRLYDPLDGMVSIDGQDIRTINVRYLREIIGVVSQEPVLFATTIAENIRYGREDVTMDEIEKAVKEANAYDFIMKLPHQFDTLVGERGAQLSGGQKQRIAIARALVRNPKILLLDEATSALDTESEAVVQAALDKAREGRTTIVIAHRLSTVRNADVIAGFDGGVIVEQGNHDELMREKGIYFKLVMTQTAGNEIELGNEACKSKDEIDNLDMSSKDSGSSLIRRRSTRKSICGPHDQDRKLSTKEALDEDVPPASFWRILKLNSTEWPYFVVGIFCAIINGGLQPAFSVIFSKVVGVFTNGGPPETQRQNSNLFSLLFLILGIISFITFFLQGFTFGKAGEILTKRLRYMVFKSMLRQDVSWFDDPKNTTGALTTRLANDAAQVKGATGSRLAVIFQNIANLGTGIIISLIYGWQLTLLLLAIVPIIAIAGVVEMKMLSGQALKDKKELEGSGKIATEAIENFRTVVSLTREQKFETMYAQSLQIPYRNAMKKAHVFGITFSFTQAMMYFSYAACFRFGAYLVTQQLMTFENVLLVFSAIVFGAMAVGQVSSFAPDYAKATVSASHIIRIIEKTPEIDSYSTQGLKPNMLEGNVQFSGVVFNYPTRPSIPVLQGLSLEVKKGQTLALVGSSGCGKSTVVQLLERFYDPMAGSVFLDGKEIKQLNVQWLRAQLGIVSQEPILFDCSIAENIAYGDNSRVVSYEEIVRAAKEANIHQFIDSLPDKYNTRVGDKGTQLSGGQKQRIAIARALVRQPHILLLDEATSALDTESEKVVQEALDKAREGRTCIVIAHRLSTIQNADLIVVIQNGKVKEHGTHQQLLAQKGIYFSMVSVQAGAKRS
T1 sequence (P08183 whole entry): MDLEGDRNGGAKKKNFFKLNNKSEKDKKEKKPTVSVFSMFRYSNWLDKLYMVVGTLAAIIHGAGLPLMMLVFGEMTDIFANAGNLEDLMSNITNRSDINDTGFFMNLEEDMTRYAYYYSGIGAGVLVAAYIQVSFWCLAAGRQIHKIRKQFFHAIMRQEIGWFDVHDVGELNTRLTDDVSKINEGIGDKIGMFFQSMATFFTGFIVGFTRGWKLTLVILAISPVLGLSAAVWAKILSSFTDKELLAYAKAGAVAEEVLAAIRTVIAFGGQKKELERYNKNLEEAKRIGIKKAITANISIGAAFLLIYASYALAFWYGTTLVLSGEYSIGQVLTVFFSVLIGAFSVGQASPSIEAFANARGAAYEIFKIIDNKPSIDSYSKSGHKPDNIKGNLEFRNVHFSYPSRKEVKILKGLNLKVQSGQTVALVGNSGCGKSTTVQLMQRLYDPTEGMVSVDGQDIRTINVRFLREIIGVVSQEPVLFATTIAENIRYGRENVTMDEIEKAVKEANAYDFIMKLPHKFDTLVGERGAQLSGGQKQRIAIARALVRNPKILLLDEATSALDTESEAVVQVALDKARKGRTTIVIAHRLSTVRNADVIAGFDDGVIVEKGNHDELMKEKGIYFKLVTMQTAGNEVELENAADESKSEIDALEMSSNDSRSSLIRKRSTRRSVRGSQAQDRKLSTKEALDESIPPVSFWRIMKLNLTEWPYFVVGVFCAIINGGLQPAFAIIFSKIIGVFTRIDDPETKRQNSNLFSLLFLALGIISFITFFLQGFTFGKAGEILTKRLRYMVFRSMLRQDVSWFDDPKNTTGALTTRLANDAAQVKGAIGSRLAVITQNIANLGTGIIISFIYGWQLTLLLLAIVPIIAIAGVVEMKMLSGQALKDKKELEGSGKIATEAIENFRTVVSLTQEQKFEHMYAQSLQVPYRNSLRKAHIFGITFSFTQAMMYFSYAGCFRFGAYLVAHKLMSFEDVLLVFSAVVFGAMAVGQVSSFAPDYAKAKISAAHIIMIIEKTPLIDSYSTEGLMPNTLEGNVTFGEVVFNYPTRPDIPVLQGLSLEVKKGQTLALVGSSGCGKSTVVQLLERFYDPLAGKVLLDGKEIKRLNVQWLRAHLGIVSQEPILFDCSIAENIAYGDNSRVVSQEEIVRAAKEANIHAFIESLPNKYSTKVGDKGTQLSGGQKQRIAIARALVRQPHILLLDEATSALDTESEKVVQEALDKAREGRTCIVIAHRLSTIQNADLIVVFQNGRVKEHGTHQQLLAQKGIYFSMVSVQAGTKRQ

SMILES: CC(C)(C)c1nc(-c2cccc(NS(=O)(=O)c3c(F)cccc3F)c2F)c(-c2ccnc(N)n2)s1 [Dabrafenib, reference compound]
- efflux ratio (recognized by P-gp) (P-gp [1]): 11.4-18.3
- IC50 (HCT116 cells; WT BRAF, read-out: HCT116 IC50): > 1 µM
- enhancement of BBB penetrance by P-gp inhibition (P-gp [2]; 15 min): 4.3 fold
- enhancement of BBB penetrance by P-gp inhibition (P-gp [2]; 60 min): 5.8 fold
- duration of intracranial response [3]: 6.5 months
- median survival [4]: 39 days
- IC50 (B16F10 cells; WT BRAF, read-out: B16F10 IC50): > 1 µM

- Kp at 60 min [6]: 0.0014 to 0.0069
- IC50 (HCT116 cells; [8]): 2.1 ± 0.456 µM
- IC50 (HCT116 cells; [9]): 2.1 ± 0.456 µM
- enhancement of BBB penetrance by P-gp inhibition (P-gp [2]; 15 min): 1.5 fold
- enhancement of BBB penetrance by P-gp inhibition (P-gp [2]; 60 min): 2.5 fold
- IC50 (B16F10 cells; [10]): > 10 µM
- IC50 (B16F10 cells; [11]): > 10 µM
SMILES: CCCS(=O)(=O)Nc1cc(Cl)cc(-c2nc(C(C)(C)C)sc2-c2ccnc(NCCCCC(=O)O)n2)c1F [6-263, 5-((4-(2-(tert-butyl)-4-(5-chloro-2-fluoro-3-(propylsulfonamido)phenyl)thiazol-5-yl)pyrimidin-2-yl)amino)pentanoic acid]
- inhibition of MAPK signaling (MEK1/2 and ERK1/2 phosphorylation) [5]: strongly inhibited
- IC50 (cell lines with WTBRAF): > 1 µM

SMILES: CCCS(=O)(=O)Nc1cc(Cl)cc(-c2nc(C(C)(C)C)sc2-c2ccnc(N)n2)c1F [6-261, N-(3-(5-(2-aminopyrimidin-4-yl)-2-(tert-butyl)thiazol-4-yl)-5-chloro-2-fluorophenyl)propane-1-sulfonamide]
- inhibition of MAPK signaling (MEK1/2 and ERK1/2 phosphorylation) [5]: strongly inhibited
- Kp at 60 min [6]: 0.286
- AUC [7, 12]: 503964.63 ng·min/mL
- CL [7, 12]: 39.69 mL/min/kg
- Cmax [7, 12]: 9364.7721 ng/mL
- T1/2 [7, 12]: 37.3 min
- Vss [7, 12]: 2.6929321 L/kg
- CL [7, 13]: 39.7 mL/min/kg
- Vss [7, 13]: 2.6929 L/kg
- concentration at 0 min ([7]; CD-1, mouse, serum, intraperitoneal, 20 mg/kg IP, 0 min, read-out: [Drug] serum concentration): 0 nM
- concentration at 15 min [7, 14]: 12.9 ± 0.557 µM
- concentration at 30 min ([7]; CD-1, mouse, serum, intraperitoneal, 20 mg/kg IP, 30 min, read-out: [Drug] serum concentration): 9.46 ± 0.621 µM
- concentration at 45 min ([7]; CD-1, mouse, serum, intraperitoneal, 20 mg/kg IP, 45 min, read-out: [Drug] serum concentration): 6.7 ± 0.122 µM
- concentration at 60 min [7, 14]: 5.59 ± 0.167 µM
- concentration at 120 min ([7]; CD-1, mouse, serum, intraperitoneal, 20 mg/kg IP, 120 min, read-out: [Drug] serum concentration): 2.55 ± 0.194 µM
- concentration at 240 min ([7]; CD-1, mouse, serum, intraperitoneal, 20 mg/kg IP, 240 min, read-out: [Drug] serum concentration): 0.581 ± 0.118 µM
- concentration at 480 min ([7]; CD-1, mouse, serum, intraperitoneal, 20 mg/kg IP, 480 min, read-out: [Drug] serum concentration): 0.014 ± 0.00207 µM
- concentration at 960 min ([7]; CD-1, mouse, serum, intraperitoneal, 20 mg/kg IP, 960 min, read-out: [Drug] serum concentration): 0 nM
- half-life ([7]; CD-1, mouse, serum, ip, 20 mg/kg, 20 mg/kg IP, CD-1 mice, one-compartment model): 37.3 min
- AUC ([7]; CD-1, mouse, serum, ip, 20 mg/kg, 20 mg/kg IP, CD-1 mice, one-compartment model, read-out: AUC (converted)): 504000 ng·min/mL
- Cmax ([7]; CD-1, mouse, serum, ip, 20 mg/kg, 20 mg/kg IP, CD-1 mice, one-compartment model, read-out: Cmax): 9360 ng/mL
- concentration at 15 min [7, 15]: 16.4 ± 0.719 µM
- concentration at 60 min [7, 15]: 6.56 ± 0.29 µM
- IC50 (HCT116 cells; [8]): > 1 µM
- IC50 (HCT116 cells; [9]): > 1 µM
- effect of P-gp inhibitor (elacridar) co-treatment on brain exposure (P-gp [2]; result in words): did display potentiation
- median survival [4]: 50.5 days
- IC50 (B16F10 cells; [10]): > 1 µM
- IC50 (B16F10 cells; [11]): > 1 µM
- IC50 (cell lines with WTBRAF): > 1 µM
- activity against glioma cell-lines with WTBRAF (U118MG, T98G, U87) (cell lines with WTBRAF; cell culture): no activity
